Where two headings read alike, the source gives them in different places. Starred links: 1 amine or outer side, 2 acyl side, 3 side chain; linkers in the order of their positions; H or OH if unused. Non-standard residues stand in square brackets, D forms with d. Residues, ends and D or L forms follow the SMILES beside them. *: point of attachment. X2 = CC(C)CCC[C@@H](C)[C@H]1CC[C@H]2[C@@H]3CC=C4C[C@@H](OC(=O)CCOCCOCCOCCOCCNC(=O)C*)CC[C@]4(C)[C@H]3CC[C@]12C; X1 = O=C([C@H]1CNC[C@@H]1N[*:1])[*:2]; β3hE = N[C@@H](CCC(=O)O)CC(=O)O; β3hQ = NC(=O)CC[C@H](N)CC(=O)O; β3hD = NC(CC(=O)O)CC(=O)O
Legend:
SARS-CoV-2 S = biological target: T1, SARS-CoV-2 S (Severe acute respiratory syndrome coronavirus 2, UniProt P0DTC2); assay: β-Gal complementation-based cell-cell fusion assay (S-protein-mediated fusion)
T1 construct: expressed in transfected cells

[1] = Solubility of the peptides; format: physicochemical
[2] = IC50, inhibition of S-mediated fusion

Molecule: Ac-DISQINASVVNIEYEI[X1]KLE[β3hE]VA[X1]KLE[β3hE]SLIDLQELGSGSGC(X2)-NH2 [Bf APC/B3E]
- IC50 (SARS-CoV-2 S; […], cell-cell fusion assay, peptides with poly(ethylene glycol)-cholesterol tail, read-out: IC50, inhibition of S-mediated fusion): ~50 nM

Molecule: Ac-[β3hD]IS[β3hQ]INASVVNIEYEIKKLEEVAKKLEESLI[β3hD]L[β3hQ]ELGSGSGC(X2)-NH2 [D1 Q4 D32 Q34]
- IC50 (SARS-CoV-2 S; [2]): ~10 nM

Molecule: CC[C@H](C)[C@H](NC(=O)[C@H](CCC(N)=O)NC(=O)[C@H](CO)NC(=O)[C@@H](NC(=O)[C@@H](N)CC(=O)O)[C@@H](C)CC)C(=O)N[C@@H](CC(N)=O)C(=O)N[C@@H](C)C(=O)N[C@@H](CO)C(=O)N[C@H](C(=O)N[C@H](C(=O)N[C@@H](CC(N)=O)C(=O)N[C@H](C(=O)N[C@@H](CCC(=O)O)C(=O)N[C@@H](Cc1ccc(O)cc1)C(=O)N[C@@H](CCC(=O)O)C(=O)N[C@H](C(=O)N[C@@H](CCCCN)C(=O)N[C@@H](CCCCN)C(=O)N[C@@H](CC(C)C)C(=O)N[C@@H](CCC(=O)O)C(=O)N[C@@H](CCC(=O)O)C(=O)N[C@H](C(=O)N[C@@H](C)C(=O)N[C@@H](CCCCN)C(=O)N[C@@H](CCCCN)C(=O)N[C@@H](CC(C)C)C(=O)N[C@@H](CCC(=O)O)C(=O)N[C@@H](CCC(=O)O)C(=O)N[C@@H](CO)C(=O)N[C@@H](CC(C)C)C(=O)N[C@H](C(=O)N[C@@H](CC(=O)O)C(=O)N[C@@H](CC(C)C)C(=O)N[C@@H](CCC(N)=O)C(=O)N[C@@H](CCC(=O)O)C(=O)N[C@@H](CC(C)C)C(N)=O)[C@@H](C)CC)C(C)C)[C@@H](C)CC)[C@@H](C)CC)C(C)C)C(C)C [Peptide 1] (H-DISQINASVVNIEYEIKKLEEVAKKLEESLIDLQEL-NH2; N-terminus and C-terminus assumed)
- solubility (in words) [1]: improved solubility

Molecule: Ac-[β3hD]IS[β3hQ]INASVVNIEYEIKKLEEVAKKLEESLI[β3hD]LQ[β3hE]LGSGSGC(X2)-NH2 [D1 Q4 D32 E35]
- IC50 (SARS-CoV-2 S; [2]): ~50 nM

Molecule: CC[C@H](C)[C@H](NC(=O)[C@H](C)NC(=O)[C@H](CCC(=O)O)NC(=O)[C@H](CCC(=O)O)NC(=O)[C@H](CC(C)C)NC(=O)[C@H](CCCCN)NC(=O)[C@H](CCCCN)NC(=O)[C@H](CCSC)NC(=O)[C@H](CCC(=O)O)NC(=O)[C@H](Cc1ccc(O)cc1)NC(=O)[C@H](CCC(=O)O)NC(=O)[C@H](CC(C)C)NC(=O)[C@H](CC(=O)O)NC(=O)[C@H](CC(C)C)NC(=O)[C@H](Cc1ccccc1)NC(=O)[C@@H](NC(=O)[C@@H](NC(=O)[C@H](CC(N)=O)NC(=O)[C@@H](NC(=O)[C@H](CCC(N)=O)NC(=O)[C@H](CC(=O)O)NC(=O)[C@H](CC(C)C)NC(=O)[C@@H](N)CO)[C@@H](C)CC)C(C)C)[C@@H](C)O)C(=O)N[C@@H](CCCCN)C(=O)N[C@@H](CCCCN)C(=O)N[C@@H](CC(C)C)C(=O)N[C@@H](CCC(=O)O)C(=O)N[C@@H](CCC(=O)O)C(=O)N[C@@H](CO)C(=O)N[C@@H](Cc1ccc(O)cc1)C(=O)N[C@H](C(=O)N[C@@H](CC(=O)O)C(=O)N[C@@H](CC(C)C)C(=O)N[C@@H](CCCCN)C(=O)N[C@@H](CCC(=O)O)C(=O)N[C@@H](CC(C)C)C(N)=O)[C@@H](C)CC [EK1]
- solubility (in words) [1]: improved solubility

Reference: patent publication US20260232759A1, “PEPTIDES THAT INHIBIT INFECTION BY SARS-COV-2, THE VIRUS THAT CAUSES COVID-19 DISEASE” (Wisconsin Alumni Research Foundation, priority 2021, published 2026)
